Assay results as given in patent US20240092758A1, “IMIDAZOLO INDAZOLE COMPOUNDS AS JAK INHIBITORS” (Theravance Biopharma R&D IP, LLC, priority 2021, published 2024).

What was measured:
JAK1 = JAK1 (Homo sapiens (Human), UniProt P23458); assay: Biochemical JAK kinase assay (LanthaScreen), JAK1; settings: for Ki: read-out: JAK1 pKi (converted)
In short: (§1)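 LanthaScreen format: phospho-STAT1 (pTyr701) detected with 2 nM Tb antibody after 10 mM EDTA quench. Kinase step used Km-level ATP and 200 nM STAT1 peptide, 1 h at ambient after 1 h pre-incubation. Inhibition fitted to IC50, reported as pKi.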

JAK2 = JAK2 (Homo sapiens (Human), UniProt O60674); assay: Biochemical JAK kinase assay (LanthaScreen), JAK2; settings: for Ki: read-out: JAK2 pKi (converted)
Sequence of JAK2 (O60674 whole entry): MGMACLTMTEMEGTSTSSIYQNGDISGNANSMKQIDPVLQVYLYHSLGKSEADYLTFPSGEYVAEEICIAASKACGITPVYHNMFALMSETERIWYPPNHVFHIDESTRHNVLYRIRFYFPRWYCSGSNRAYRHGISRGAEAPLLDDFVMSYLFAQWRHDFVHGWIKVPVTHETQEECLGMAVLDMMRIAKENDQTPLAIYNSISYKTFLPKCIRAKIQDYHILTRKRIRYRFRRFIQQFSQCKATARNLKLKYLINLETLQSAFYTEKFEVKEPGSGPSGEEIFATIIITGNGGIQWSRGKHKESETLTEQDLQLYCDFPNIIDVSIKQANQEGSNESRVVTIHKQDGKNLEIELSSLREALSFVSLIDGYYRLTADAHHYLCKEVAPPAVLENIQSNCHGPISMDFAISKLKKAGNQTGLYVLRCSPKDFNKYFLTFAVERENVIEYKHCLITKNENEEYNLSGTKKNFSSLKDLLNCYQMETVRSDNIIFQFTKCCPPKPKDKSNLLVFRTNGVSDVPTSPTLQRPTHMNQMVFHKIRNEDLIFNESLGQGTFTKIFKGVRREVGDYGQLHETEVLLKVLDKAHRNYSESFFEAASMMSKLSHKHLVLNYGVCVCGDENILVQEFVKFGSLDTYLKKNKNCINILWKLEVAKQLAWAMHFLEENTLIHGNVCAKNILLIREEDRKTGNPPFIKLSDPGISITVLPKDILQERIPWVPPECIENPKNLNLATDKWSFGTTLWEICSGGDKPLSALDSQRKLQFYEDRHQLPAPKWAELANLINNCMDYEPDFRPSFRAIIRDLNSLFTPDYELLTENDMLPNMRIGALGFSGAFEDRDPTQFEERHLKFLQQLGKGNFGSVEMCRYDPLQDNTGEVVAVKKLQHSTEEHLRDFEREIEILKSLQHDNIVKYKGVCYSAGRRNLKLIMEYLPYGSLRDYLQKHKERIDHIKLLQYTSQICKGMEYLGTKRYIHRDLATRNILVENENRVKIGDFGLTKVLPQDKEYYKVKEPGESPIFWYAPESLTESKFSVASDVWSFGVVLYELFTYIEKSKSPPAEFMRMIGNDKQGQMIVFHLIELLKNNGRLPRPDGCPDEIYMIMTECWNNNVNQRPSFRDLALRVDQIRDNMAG
In short: as §1

[1] = test system: IL-13 induced STAT6 phosphorylation in BEAS-2B human lung epithelial cells; assay: Cellular JAKI potency assay (BEAS-2B); format: cell-based; settings: Homo sapiens, BEAS-2B, BEAS-2B cells, read-out: BEAS2B pIC50 (converted)
In short: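 BEAS-2B cells were preincubated with compound (0.1% DMSO) in HBSS/HEPES/BSA for 1 h at 37 °C, then stimulated with IL-13 (80 ng/mL before addition) for 30 min. After lysis, pSTAT6 (Tyr641) was quantified by AlphaLISA SureFire; IC50 from a 4-parameter fit of percent inhibition, reported as pIC50.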

Sequence of JAK1 (P23458 whole entry): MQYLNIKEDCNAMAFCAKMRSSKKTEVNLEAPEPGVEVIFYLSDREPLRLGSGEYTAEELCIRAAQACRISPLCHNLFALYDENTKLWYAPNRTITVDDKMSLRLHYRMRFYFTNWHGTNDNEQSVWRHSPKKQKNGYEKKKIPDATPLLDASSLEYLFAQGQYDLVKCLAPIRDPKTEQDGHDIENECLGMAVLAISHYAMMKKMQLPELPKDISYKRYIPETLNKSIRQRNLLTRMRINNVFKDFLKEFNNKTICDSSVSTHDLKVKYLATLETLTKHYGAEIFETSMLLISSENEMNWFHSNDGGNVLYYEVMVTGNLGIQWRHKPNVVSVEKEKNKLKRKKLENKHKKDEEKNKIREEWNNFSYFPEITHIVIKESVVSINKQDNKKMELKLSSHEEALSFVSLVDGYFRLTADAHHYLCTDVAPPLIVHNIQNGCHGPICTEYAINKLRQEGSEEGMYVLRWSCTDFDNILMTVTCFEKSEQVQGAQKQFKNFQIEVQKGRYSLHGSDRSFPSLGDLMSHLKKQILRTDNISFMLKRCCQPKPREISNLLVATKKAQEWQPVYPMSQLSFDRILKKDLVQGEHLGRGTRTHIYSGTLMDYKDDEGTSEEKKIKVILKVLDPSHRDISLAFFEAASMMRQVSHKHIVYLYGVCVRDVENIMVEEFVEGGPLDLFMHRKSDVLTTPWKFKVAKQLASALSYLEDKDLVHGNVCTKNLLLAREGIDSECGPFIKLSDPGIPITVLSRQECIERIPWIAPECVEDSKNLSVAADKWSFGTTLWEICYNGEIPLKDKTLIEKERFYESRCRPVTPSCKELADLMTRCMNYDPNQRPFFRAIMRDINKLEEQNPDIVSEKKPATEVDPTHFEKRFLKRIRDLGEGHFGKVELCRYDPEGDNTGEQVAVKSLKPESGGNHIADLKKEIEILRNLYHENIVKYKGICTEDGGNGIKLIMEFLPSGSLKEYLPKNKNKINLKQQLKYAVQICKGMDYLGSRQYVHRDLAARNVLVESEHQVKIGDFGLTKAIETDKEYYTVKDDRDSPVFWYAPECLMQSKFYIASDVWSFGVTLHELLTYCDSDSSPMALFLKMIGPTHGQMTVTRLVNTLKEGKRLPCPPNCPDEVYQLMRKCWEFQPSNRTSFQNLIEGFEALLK

Compound	Ki (JAK1) [nM]	Ki (JAK2) [nM]	IC50 [1] [nM]	JAK1 pKi (JAK1)	JAK2 pKi (JAK2)
CCc1cc(O)ccc1-c1ccc2c(-c3nc(C4=CCCN(C(=O)CN)C4)c[nH]3)n[nH]c2c1 [Example 164]	0.1 to 1	0.1 to 1	10 to 31.6	–	–
CCc1cc(O)ccc1-c1ccc2c(-c3nc(C4=CCN(C(C)=O)C4)c[nH]3)n[nH]c2c1 [Example 166]	–	–	3.16 to 10	A (A represents a pKi value ≥10 (Ki≤0.1 nM))	A (A represents a pKi value ≥10 (Ki≤0.1 nM))
CCc1cc(O)ccc1-c1ccc2c(-c3nc(C4=CCN(S(C)(=O)=O)C4)c[nH]3)n[nH]c2c1 [Example 167]	0.1 to 1	1 to 10	3.16 to 10	–	–
CCc1cc(O)ccc1-c1ccc2c(-c3nc(C4=CCN(C(=O)OC)C4)c[nH]3)n[nH]c2c1 [Example 168]	0.1 to 1	0.1 to 1	10 to 31.6	–	–
CCc1cc(O)ccc1-c1ccc2c(-c3nc(C4=CCN(C(=O)NC)C4)c[nH]3)n[nH]c2c1 [Example 169]	0.1 to 1	–	31.6 to 100	–	A (A represents a pKi value ≥10 (Ki≤0.1 nM))
CCc1cc(O)ccc1-c1ccc2c(-c3nc(C4=CCN(C(C)=O)C4)c[nH]3)n[nH]c2c1F [Example 171]	0.1 to 1	0.1 to 1	10 to 31.6	–	–
CCc1cc(O)ccc1-c1ccc2c(-c3nc(C4=CCN(S(C)(=O)=O)C4)c[nH]3)n[nH]c2c1F [Example 172]	1 to 10	0.1 to 1	10 to 31.6	–	–
CCc1cc(O)ccc1-c1ccc2c(-c3nc(C4=CCN(C[C@H]5COCCN5)CC4)c[nH]3)n[nH]c2c1F [Example 190]	0.1 to 1	0.1 to 1	31.6 to 100	–	–
CCc1cc(O)ccc1-c1ccc2c(-c3nc(C4=CCN(C[C@@H]5COCCN5)C4)c[nH]3)n[nH]c2c1 [Example 200]	0.1 to 1	–	10 to 31.6	–	A (A represents a pKi value ≥10 (Ki≤0.1 nM))
CCc1cc(O)ccc1-c1ccc2c(-c3nc(C4=CC5COCC(C4)N5)c[nH]3)n[nH]c2c1F (stereo not drawn) [Example 228]	0.1 to 1	0.1 to 1	10 to 31.6	–	–
CCc1cc(O)ccc1-c1ccc2c(-c3nc(C4=CCC5(CNC5)OC4)c[nH]3)n[nH]c2c1 [Example 229]	0.1 to 1	–	31.6 to 100	–	A (A represents a pKi value ≥10 (Ki≤0.1 nM))
CCc1cc(O)ccc1-c1ccc2c(-c3nc(C4=C(C)CCNC4)c[nH]3)n[nH]c2c1 [Example 232]	0.1 to 1	0.1 to 1	3.16 to 10	–	–
CCc1cc(O)ccc1-c1ccc2c(-c3nc(C4=CCCNC4C)c[nH]3)n[nH]c2c1 (stereo not drawn) [Example 233]	0.1 to 1	0.1 to 1	10 to 31.6	–	–
CCc1cc(O)ccc1-c1ccc2c(-c3nc(C4=CCCNC4C)c[nH]3)n[nH]c2c1F (stereo not drawn) [Example 237]	0.1 to 1	–	10 to 31.6	–	A (A represents a pKi value ≥10 (Ki≤0.1 nM))
CCc1cc(O)ccc1-c1ccc2c(-c3nc(C4=C[C@H](CO)NC4)c[nH]3)n[nH]c2c1 [Example 239]	0.1 to 1	0.1 to 1	31.6 to 100	–	–
CCc1cc(O)ccc1-c1ccc2c(-c3nc(C4=C[C@@H](CO)NC4)c[nH]3)n[nH]c2c1 [Example 240]	0.1 to 1	0.1 to 1	31.6 to 100	–	–
CCc1cc(O)ccc1-c1ccc2c(-c3nc(C4=C[C@@H](COC)NC4)c[nH]3)n[nH]c2c1 [Example 242]	–	0.1 to 1	3.16 to 10	A (A represents a pKi value ≥10 (Ki≤0.1 nM))	–
CCc1cc(O)ccc1-c1ccc2c(-c3nc(C4=C[C@H](CC#N)NC4)c[nH]3)n[nH]c2c1 [Example 243]	–	–	3.16 to 10	A (A represents a pKi value ≥10 (Ki≤0.1 nM))	A (A represents a pKi value ≥10 (Ki≤0.1 nM))
CCc1cc(O)ccc1-c1ccc2c(-c3nc(C4=C[C@H](CC#N)NC4)c[nH]3)n[nH]c2c1F [Example 247]	0.1 to 1	0.1 to 1	10 to 31.6	–	–
CCc1cc(O)ccc1-c1ccc2c(-c3nc(C4=C[C@@H](CC#N)NC4)c[nH]3)n[nH]c2c1 [Example 248]	0.1 to 1	0.1 to 1	10 to 31.6	–	–
CCc1cc(O)ccc1-c1ccc2c(-c3nc(C4=C[C@@H](CC#N)NC4)c[nH]3)n[nH]c2c1F [Example 249]	0.1 to 1	0.1 to 1	10 to 31.6	–	–
CCc1cc(O)ccc1-c1ccc2c(-c3nc(C4=C[C@H](C(=O)OC)NC4)c[nH]3)n[nH]c2c1F [Example 250]	0.1 to 1	0.1 to 1	31.6 to 100	–	–

Compound	Ki (JAK1) [nM]	Ki (JAK2) [nM]	IC50 [1] [nM]	JAK1 pKi (JAK1)	JAK2 pKi (JAK2)
CCc1cc(O)ccc1-c1ccc2c(-c3nc(C4=C[C@@H](C(=O)OC)NC4)c[nH]3)n[nH]c2c1F [Example 251]	0.1 to 1	0.1 to 1	10 to 31.6	–	–
CCc1cc(O)ccc1-c1ccc2c(-c3nc(C4=C[C@@H](C(=O)N5CC(N(C)C)C5)NC4)c[nH]3)n[nH]c2c1F [Example 252]	0.1 to 1	0.1 to 1	100 to 316	–	–
CCc1cc(O)ccc1-c1ccc2c(-c3nc(C4=C[C@H](CC(=O)OC)NC4)c[nH]3)n[nH]c2c1F [Example 253]	–	–	3.16 to 10	A (A represents a pKi value ≥10 (Ki≤0.1 nM))	A (A represents a pKi value ≥10 (Ki≤0.1 nM))
CCc1cc(O)ccc1-c1ccc2c(-c3nc(C4=C[C@@H](CC(=O)OC)NC4)c[nH]3)n[nH]c2c1F [Example 254]	0.1 to 1	0.1 to 1	10 to 31.6	–	–
CCc1cc(O)ccc1-c1ccc2c(-c3nc(C4=C[C@@H](CC(=O)N(C)C)NC4)c[nH]3)n[nH]c2c1F [Example 256]	–	–	31.6 to 100	A (A represents a pKi value ≥10 (Ki≤0.1 nM))	A (A represents a pKi value ≥10 (Ki≤0.1 nM))
CCc1cc(O)ccc1-c1ccc2c(-c3nc(C4=CC[C@H](C)N(CCO)C4)c[nH]3)n[nH]c2c1F [Example 257]	0.1 to 1	0.1 to 1	10 to 31.6	–	–
CCc1cc(O)ccc1-c1ccc2c(-c3nc(C4=CC[C@H](C)N(CCCO)C4)c[nH]3)n[nH]c2c1F [Example 258]	0.1 to 1	0.1 to 1	10 to 31.6	–	–
CCc1cc(O)ccc1-c1ccc2c(-c3nc(C4=CC[C@H](C)N(C(C)CO)C4)c[nH]3)n[nH]c2c1F (stereo partly drawn) [Example 259]	0.1 to 1	0.1 to 1	10 to 31.6	–	–
CCc1cc(O)ccc1-c1ccc2c(-c3nc(C4=CC[C@H](C)N(CCC(C)(C)O)C4)c[nH]3)n[nH]c2c1F [Example 260]	0.1 to 1	0.1 to 1	10 to 31.6	–	–
CCc1cc(O)ccc1-c1ccc2c(-c3nc(C4=CC[C@H](C)N(C[C@H](C)CO)C4)c[nH]3)n[nH]c2c1F [Example 261]	0.1 to 1	0.1 to 1	10 to 31.6	–	–
CCc1cc(O)ccc1-c1ccc2c(-c3nc(C4=CC[C@H](C)N(C[C@@H](C)CO)C4)c[nH]3)n[nH]c2c1F [Example 262]	0.1 to 1	0.1 to 1	10 to 31.6	–	–
CCc1cc(O)ccc1-c1ccc2c(-c3nc(C4=C[C@H](CO)N(CCO)C4)c[nH]3)n[nH]c2c1F [Example 263]	–	–	10 to 31.6	A (A represents a pKi value ≥10 (Ki≤0.1 nM))	A (A represents a pKi value ≥10 (Ki≤0.1 nM))
CCc1cc(O)ccc1-c1ccc2c(-c3nc(C4=C[C@H](CO)N(CCCO)C4)c[nH]3)n[nH]c2c1F [Example 264]	0.1 to 1	–	10 to 31.6	–	A (A represents a pKi value ≥10 (Ki≤0.1 nM))
CCc1cc(O)ccc1-c1ccc2c(-c3nc(C4=CC[C@H](C)N([C@H]5C[C@@H](O)C5)C4)c[nH]3)n[nH]c2c1F [Example 265]	0.1 to 1	0.1 to 1	3.16 to 10	–	–
CCc1cc(O)ccc1-c1ccc2c(-c3nc(C4=CC[C@H](C)N(CCCOC)C4)c[nH]3)n[nH]c2c1F [Example 266]	0.1 to 1	0.1 to 1	10 to 31.6	–	–
CCc1cc(O)ccc1-c1ccc2c(-c3nc(C4=CC[C@H](C)N(CC5COC5)C4)c[nH]3)n[nH]c2c1F [Example 267]	0.1 to 1	0.1 to 1	10 to 31.6	–	–
CCc1cc(O)ccc1-c1ccc2c(-c3nc(C4=CC[C@H](C)N(C5CCOCC5)C4)c[nH]3)n[nH]c2c1F [Example 268]	0.1 to 1	0.1 to 1	10 to 31.6	–	–
CCc1cc(O)ccc1-c1ccc2c(-c3nc(C4=CC[C@H](C)N(C[C@H]5COCCN5)C4)c[nH]3)n[nH]c2c1F [Example 269]	0.1 to 1	0.1 to 1	31.6 to 100	–	–
CCc1cc(O)ccc1-c1ccc2c(-c3nc(C4=CC[C@H](C)N(CCN5CCOCC5)C4)c[nH]3)n[nH]c2c1F [Example 270]	0.1 to 1	0.1 to 1	10 to 31.6	–	–
CCc1cc(O)ccc1-c1ccc2c(-c3nc(C4=CC[C@H](C)N(CCN5CCCC5=O)C4)c[nH]3)n[nH]c2c1F [Example 271]	0.1 to 1	0.1 to 1	10 to 31.6	–	–
CCc1cc(O)ccc1-c1ccc2c(-c3nc(C4=C[C@H](CO)N(CCCOC)C4)c[nH]3)n[nH]c2c1F [Example 272]	–	–	3.16 to 10	A (A represents a pKi value ≥10 (Ki≤0.1 nM))	A (A represents a pKi value ≥10 (Ki≤0.1 nM))
CCc1cc(O)ccc1-c1ccc2c(-c3nc(C4=C[C@H](CO)N(C5COC5)C4)c[nH]3)n[nH]c2c1F [Example 273]	0.1 to 1	–	10 to 31.6	–	A (A represents a pKi value ≥10 (Ki≤0.1 nM))
